Usually inhibition stands for the share of the control response that was lost under treatment. The % Inhibition is the drop in the measured response relative to a control, in per cent.

Results on 13 molecules are retold here after EP0591582B1, “Hexahydrobenzo (f) quinolinones as 5-alpha-reductase inhibitors” (ELI LILLY AND COMPANY, priority 1992, dated 1994).

For one assay, the target named is T1, 5α-reductase (Homo sapiens, UniProt P18405).
T1 construct: host or cells: Hs68 human genital skin fibroblasts
T1 sequence (P18405 1-259): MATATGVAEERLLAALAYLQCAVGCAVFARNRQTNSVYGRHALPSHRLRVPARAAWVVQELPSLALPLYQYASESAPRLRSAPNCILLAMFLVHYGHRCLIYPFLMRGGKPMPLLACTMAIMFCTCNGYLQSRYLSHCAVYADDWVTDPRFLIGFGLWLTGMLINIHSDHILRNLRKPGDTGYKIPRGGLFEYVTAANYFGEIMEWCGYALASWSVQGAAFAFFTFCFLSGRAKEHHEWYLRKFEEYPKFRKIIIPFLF
Briefly: 5α-Reductase activity (conversion of testosterone to DHT) in Hs68 human genital skin fibroblasts, TLC of radiolabelled steroids. It is filed as cell-based. The conditions noted are these: Concentration 0.316 mM; Hs68 cells, four hours incubation; 0 equals no activity, 100 equals total inhibition. Here is the method:
Cell Culture: 5α-Reductase activity was measured using Hs68 human genital skin fibroblasts which were originally purchased from the American Type Culture Collection(Rockville, MD). The cells were grown in Dulbecco's Modified Eagle's Medium (DMEM) plus 10% stripped fetal bovine serum which was supplemented with amphotericin B ([…]) and gentamicin ([…]) (GIBCO, Grand Island, NY). The serum was stripped of endogenous steroids by incubation with dextran-coated charcoal prior to its addition to the media. The cells were maintained at 37°C in an atmosphere of 95% air, 5% CO2 and were passaged every 7-10 days by exposure to a trypsin-EDTA solution (0.025% trypsin, 0.265 mM EDTA). Prior to the assay the Hs68 cells were harvested and plated in Falcon 6-well plates (Becton Dickinson Labware, Lincoln Park, NJ) at a density of 6 x 10^4 cells per well. The cells were allowed to grow for 4-5 days or until they reached approximately 80% confluence.
Assay Method I: The substrate was prepared by dissolving unlabeled testosterone (Sigma Chemical Co., St. Louis, MO) in absolute ethanol followed by the addition of [7-^3H (N)]-testosterone (23.3 Ci/mmole, New England Nuclear, Boston, MA). The steroid solution was taken to dryness under a stream of nitrogen and then reconstituted in media.
Assay Method II: The substrate used for this method was [^14C]-testosterone (50 mCi/mmol) (New England Nuclear, Boston, MA). An aliquot of the substrate was taken to dryness under a stream of nitrogen. After the addition of […] of ethanol, the testosterone was brought up in an appropriate volume of media.
Sample Preparation: The test compounds were dissolved in absolute ethanol in order to achieve the desired concentration. Subsequent dilutions of the test compounds with media were performed by the Biomek 1000 Automated Laboratory Workstation (Beckman Instruments, Palo Alto, CA). The existing media in the sample wells was aspirated and replaced with fresh media. Test compound was then added to the wells followed by the addition of 0.5 ml of the substrate. The volume of the incubation mixture was maintained at 2.0 ml. The final substrate concentration was […]. The concentration of the test compounds ranged from 0.001-15 mM. An additional three wells (background) containing media and substrate but no cells were also included to account for the non-enzymatic metabolism of the substrate. The plates were returned to the incubator and incubated for four hours.
At the end of the incubation the media was collected and transferred to an extraction tube containing 5 ml of toluene-ethanol (9:1), to which has been added […] each of unlabeled carrier steroids (estriol, estradiol, estrone, 5α-androstan-3α,17b-diol, 5α-androstan-3b,17b-diol, 4-androstene-3,17-dione, 5α-androstan-3,17-dione, testosterone, and 5α-dihydrotestosterone) (Steraloids, Inc. Wilton, NH). In the case of Assay Method I the extraction tube also contained 1,000 and 10,000 dpm of [4-^14C]-dihydrotestosterone(50-60 mCi/mmol) and [4-^14C]-testosterone (50 mCi/mmol) (New England Nuclear, Boston, MA), respectively. The [^14C]-steroids were included as recovery standards to quantify procedural losses. A small amount of NaCl was also added to the extraction tubes to prevent foaming. The samples were vortexed for approximately 30 seconds and then centrifuged for 10 minutes at 500 x g. The organic phase was collected and the samples taken to dryness, redissolved in dichloromethane-methanol (9:1) and were analyzed by thin layer chromatography using one of the methods described below.
Chromatography Method I (two-dimensional): The extracted samples were appled to silica gel 60F254, 0.25 mm thick, thin layer chromatography plates (EM Science, Cincinnati, OH). The plates were developed in the first dimension with a solvent system containing dichloromethaneethyl acetate-methanol-acetic acid (160:38:1.5:0.5, Mallinckrodt Inc., Paris, KY). […]
`O=C1CCC2=C(CCc3cc(Br)ccc32)N1` [Example 1, 8-bromo-1,2,3,4,5,6-hexahydrobenzo[f]quinolin-3-one]: the inhibition at 316 µM turned out to be 73%.

With `O=C1CCC2=C(CCc3cc(Cl)c(Cl)cc32)N1` [Example 3, 8,9-dichloro-1,2,3,4,5,6-hexahydrobenzo[f]quinolin-3-one], at 316 µM the inhibition was 85%.

In the case of `CC1(C)CC2=C(CCC(=O)N2)c2ccc(Br)cc21` [Example 14, 8-bromo-6,6-dimethyl-1,2,3,4,5,6-hexahydrobenzo[f]quinolin-3-one], the inhibition at 316 µM was 30%.

The assay is the same for the next values; noted with them: Concentration 3.16 mM; Hs68 cells, four hours incubation; 0 equals no activity, 100 equals total inhibition.
On to `CC(C)(C)c1ccc2c(c1)CCC1=C2CCC(=O)N1` [Example 15, 8-t-butyl-1,2,3,4,5,6-hexahydrobenzo[f]quinolin-3-one], for which the inhibition at 3160 µM came to 30%.

The assay is the same for the next values; noted with them: Concentration 10.0 mM; Hs68 cells, four hours incubation; 0 equals no activity, 100 equals total inhibition.
`CN1C(=O)CCC2=C1CCc1cc(Br)ccc12` [Example 2, 8-bromo-4-methyl-1,2,3,4,5,6-hexahydrobenzo-[f]quinolin-3-one]: the inhibition at 10000 µM was 98%.

In the case of `CN1C(=O)CCC2=C1CCc1cc(Cl)ccc12` [Example 4, 8-chloro-4-methyl-1,2,3,4,5,6-hexahydrobenzo[f]quinolin-3-one], the inhibition at 10000 µM is 91%.

For the molecule `Cc1ccc2c(c1)CCC1=C2CCC(=O)N1C` [Example 5, 4,8-dimethyl-1,2,3,4,5,6-hexahydrobenzo[f]quinolin-3-one], at 10000 µM the inhibition was 100%.

`CN1C(=O)CCC2=C1CCc1cc(F)ccc12` [Example 6, 8-fluoro-4-methyl-1,2,3,4,5,6-hexahydrobenzo[f]quinolin-3-one] showed an inhibition at 10000 µM of 81%.

For the molecule `O=C1CCC2=C(CCc3ccccc32)N1` [Example 8, 1,2,3,4,5,6-hexahydrobenzo[f]quinolin-3-one], the inhibition at 10000 µM was 63%.

The molecule `O=C1CCC2=C(CCc3cc(F)ccc32)N1` [Example 9, 8-fluoro-1,2,3,4,5,6-hexahydrobenzo[f]quinolin-3-one] had an inhibition at 10000 µM of 76%.

With `Cc1ccc2c(c1)CCC1=C2CCC(=O)N1` [Example 13, 8-methyl-1,2,3,4,5,6-hexahydrobenzo[f]quinolin-3-one], 10000 µM produced 100% inhibition.

Take `CCCCN1C(=O)CCC2=C1CCc1cc(F)ccc12` [Example 25, 8-fluoro-4-n-butyl-1,2,3,4,5,6-hexahydrobenzo[f]quinolin-3-one]: testing at 10000 µM gave an inhibition of 56%.

Still in this assay, the particulars now being: Concentration 1.0 (1.00) mM; Hs68 cells, four hours incubation; 0 equals no activity, 100 equals total inhibition.
For `O=C1CCC2=C(CCc3cccc(F)c32)N1` [Example 20, 10-fluoro-1,2,3,4,5,6-hexahydrobenzo[f]quinolin-3-one], the “% Inhibition” value turned out to be 22%.
